Data published in PubChem BioAssay (NCI).
Several values for one entry are separate records, joined by “and”; a condition that tells them apart may be missing. Equal values may be shown once.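 Test compounds were applied to cells in 96-well plates for 48 hours at 5 doses. GI50 is the concentration that inhibits growth by half. The concentration for full growth arrest is given as TGI.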

Tests used:
Assay in all cases: inhibition of tumour cell growth, NCI panel, 48 h
[1] = test system: SNB-19 CNS
[2] = test system: NCI-H522 lung
[3] = test system: CAKI-1 renal
[4] = test system: SF-295 CNS
[5] = test system: RPMI-8226 leukemia
[6] = test system: T-47D breast
[7] = test system: HCC-2998 colon
[8] = test system: EKVX NSCLC
[9] = test system: SF-539 CNS
[10] = test system: SF-268 CNS

SMILES | TGI [1] [µM] | TGI [2] | TGI [3] | TGI [4] [µM] | TGI [5] | TGI [6] | TGI [7] | TGI [8] [µM] | TGI [9] | TGI [10] [µM] | GI50 [1] [µM] | GI50 [2] | GI50 [3] | GI50 [4] | GI50 [5] | GI50 [6] | GI50 [7] | GI50 [8] [µM] | GI50 [9] | GI50 [10] [µM]
OCC1OC(n2cnc3c2NC=NC[C@H]3O)C(Cl)C1O (some centres undefined) | > 100 | > 100 µM | > 100 µM | > 100 | > 100 µM | > 100 µM | > 100 µM | > 100 | > 100 µM | > 100 | – | – | – | – | – | – | – | – | – | –
Cc1cc(NC(=S)SCc2ccc(F)cc2)c([N+](=O)[O-])cc1C | 77.1 | – | > 100 µM | > 100 | – | > 100 µM | – | 91.3 | 53.2 µM | > 100 | – | – | – | – | – | – | – | – | – | –
Nc1nc(Nc2cccnc2)sc1C(=O)c1ccccc1F | > 23.5 | > 64.1 µM | 6.86 µM | > 26.9 | 7.35 µM | 11.9 µM | 0.972 µM | 13.9 | 3.88 µM | 25.8 | 2.65 | 8.26 µM | 1.94 µM | 2.69 µM | 3.06 µM | 1.83 µM | 0.309 µM | 2.6 | 1.52 µM | 3.24
C/C(=N\Nc1ccc(Cl)cn1)c1ccc2ccccc2n1 | > 100 | > 100 µM | 87.1 µM | > 100 | > 100 µM | 68.4 µM | > 100 µM | > 100 | 27.6 µM | > 100 | 3.3 | 3.24 µM | 2.81 µM | 3.06 µM | 2.05 µM | 3.48 µM | 3.23 µM | 2.6 | 2.57 µM | 2.75
Cc1cc2ncnn2cc1Nc1ncc2c(n1)n(C1CCOCC1)c(=O)n2C | – | > 100 µM | 52.2 µM | 48 | > 100 µM | 6.42 µM | > 100 µM | > 100 | 51.5 µM | > 100 | – | 3.74 µM | 2.88 µM | 4.98 µM | 4.41 µM | 1.41 µM | 6.56 µM | 10.8 | 9.63 µM | 6.18
CCNCCNc1cc(-c2ccc(C(F)(F)F)cc2)c(C#N)c2nc3ccccc3n12 | 3.32 | 3.66 µM | 2.31 µM | 3.34 | 3.61 µM | 2.6 µM | 3.4 µM | 3.07 | – | 3.04 | 1.72 | 1.82 µM | 1.11 µM | 1.83 µM | 1.36 µM | 0.79 µM | 1.8 µM | 1.62 | – | 1.48
CC12OC(C(=O)C13CC3)C1C(=O)c3ccc4c(ccc5ccccc54)c3C(=O)C12 (centres undefined) | > 100 | > 100 µM | 41.8 µM | – | – | 98.9 µM | > 100 µM | > 100 | > 100 µM | 86.1 | 71.8 | 51.3 µM | 19.7 µM | – | – | 25.7 µM | 20.4 µM | 51.3 | 32.2 µM | 26.5
CC1=CC(=O)C=CC1=O | 89.4 | 24 µM and 4.1 µM | 28.4 µM and 29.8 µM | 64.3 | 39.9 µM and 102 µM | 36.1 µM and 6.78 µM | 26.2 µM and 35.4 µM | 39.6 | 31.4 µM | 31.2 | 36.1 | 11.2 µM and 1.67 µM | 15.1 µM and 15.3 µM | 50.3 µM and 22.7 µM | 5.11 µM and 3.32 µM | 11.9 µM and 2.54 µM | 13.2 µM and 18.6 µM | 17 | 29.3 µM and 17 µM | 16.5
S=c1ssc(N2CCOCC2)c1Cl | > 100 | 55.4 µM | > 100 µM | > 100 | 69.2 µM | > 100 µM | > 100 µM | > 100 | 76.3 µM | 71 | > 100 | 20.4 µM | > 100 µM | 25.8 µM | 23.3 µM | > 100 µM | 30.6 µM | 58 | 31.4 µM | 23.3
CC(C)c1ccc(-c2cc(-c3cn[nH]c3-c3ccccn3)ccn2)cc1 | > 25 | > 25 µM | > 25 µM | > 19.7 | > 25 µM | > 23.7 µM | > 25 µM | > 25 | > 25 µM | > 25 | 20.5 | 6.82 µM | 19.1 µM | 7.68 µM | 11.9 µM | 6.96 µM | 10.4 µM | 11.3 | 25 µM | 14.9
Cc1cc(C)c(NC(=O)c2sc3nc4c(cc3c2N)C(=O)CCC4)c(C)c1 | > 100 | 3.06 µM | > 100 µM | > 100 | > 100 µM | > 63.5 µM | > 78.2 µM | > 100 | > 30.6 µM | > 100 | 6.12 | 0.6 µM | 2.66 µM | 0.755 µM | 4.74 µM | 5 µM | 3.07 µM | 4.28 | 2.59 µM | 6.69
CC1=C(/C=C/Cl)CC(Cl)C(C)(Cl)C1 (centres undefined) | > 100 | > 100 µM | > 100 µM | > 100 | – | > 100 µM | > 100 µM | > 100 | > 100 µM | > 100 | – | – | – | – | – | – | – | – | – | –
COc1cc(Cc2nccc3cc(OC)c(OC)cc23)c(C(C)=O)cc1OC | – | 300 µM | > 750 µM | > 750 | 265 µM and > 750 µM | 25.1 µM | 300 µM and > 750 µM | 295 | > 94.9 µM and 66.1 µM | 419 | – | 21.5 µM | > 750 µM | 224 µM | – | – | – | – | 85.3 µM and 19.9 µM | –
NC(=O)c1cc(Cl)ccc1NC(=O)/C=C/c1ccccc1 | > 55.6 | 6.42 µM | – | > 25.6 | > 100 µM | > 100 µM | 2.79 µM | > 100 | 5.53 µM | > 60.4 | 4.47 | 1.81 µM | – | 2.58 µM | 2.86 µM | 4.8 µM | 0.487 µM | 2.83 | 2.05 µM | 5.96
